Columns and labels:
[1] = Ratiometric fluorescence responses (F624/F528) of MS4 and MS5 to various metal ions; settings: 5 μM probe, 50 equiv metal ion, 50 mM HEPES, 100 mM KCl, pH 8, excitation 499 nm
Experimental: (§1) FIG. 9 depicts the ratiometric fluorescence spectroscopic responses of MS4 to various metal ions. Bars represent the ratio of fluorescence intensities collected at 624 and 528 nm (F624/F528). All spectra were acquired in 50 mM HEPES, 100 mM KCl, pH 8. Grey bars represent the addition of an excess of the appropriate metal ion (50 equiv metal ion of interest) to a 5 μM solution of MS4. Dark grey bars represent the subsequent addition of 50 equiv Hg^2+ to the solution. Excitation was provided at 499 nm.
as §1, with “FIG. 10” for “FIG. 9”, “of MS5” for “of MS4”, “of MS5.” for “of MS4.”
Millipore water was used to prepare all aqueous solutions. […] Fluorescence spectra were collected by using a Photon Technology International (Lawrenceville, N.J.) Quanta Master 4L-format scanning spectrofluorimeter equipped with an LPS-220B 75-W xenon lamp and power supply, A-1010B lamp housing with integrated igniter, switchable 814 photon-counting/analog PMT detector, and a MD-5020 motor driver. […]

[2] = Fluorescence spectroscopy: quantum yield and ratiometric emission response to Zn2+; assay type: physicochemical; settings: pH 7.5
Experimental: FIG. 3. Ratiometric fluorescence spectroscopic response of 20 μM ZNP1 to buffered Zn^2+ solutions. Spectra were acquired in 50 mM HEPES, 100 mM KCl, pH 7.5. Excitation was provided at 499 nm. A standard EDTA/Ca^2+/Zn^2+ dual-metal buffer system was employed to deliver controlled concentrations of buffered free Zn^2+. The spectra shown are for free Zn^2+ buffered at 0, 0.17, 0.42, 0.79, 1.3, 2.1, 3.4, 5.6, and 10.2 nM, respectively.
Quantum yield, Φ, may be obtained by comparison of the integrated area of the corrected emission spectrum of the sample with that of a reference solution. A preferred reference solution is a solution of fluorescein in 0.1 N NaOH, quantum efficiency 0.95. The concentration of the reference is adjusted to match the absorbance, Abs, of the test sample. The quantum yields may be calculated using the following equation:
ZNP1 was evaluated at physiological ionic strength and pH [50 mM HEPES (4-(2-hydroxyethyl)-1-piperazineethanesulfonic acid), 100 mM KCl, pH 7.5] in the presence of EDTA (ethylenediaminetetraacetic acid) to scavenge adventitious metal ions. […] The quantum yield for apo ZNP1 is 0.02.
The observed changes in absorption and emission spectra occur up to a 1:1 [Zn^2+][ZNP1] ratio, indicating the likely formation of a 1:1 complex. Upon addition of Zn^2+, the visible absorption profile of the ZNP1 chemosensor red shifts to a single broad peak centered at 547 nm (ε=2.2×10^4 M^−1cm^−1). Excitation at 499 nm produces a fluorescence spectrum featuring one dominant emission band centered at 624 nm with a minor component centered at 545 nm (FIG. 3). The quantum yield for Zn^2+-ZNP1 complex is 0.05. […] The ratio of naphthofluorescein- to fluorescein-like emission intensities (λ624/λ528) upon 499-nm excitation varies from 0.4 in the absence of Zn^2+ to 7.1 in the presence of Zn^2+, an 18-fold increase.
(§2) Millipore water was used to prepare all aqueous solutions, which were passed through 0.2 um cellulose filters prior to use. All spectroscopic measurements were performed under simulated physiological conditions using buffer solutions containing 50 mM HEPES, 4-(2-hydroxyethyl)-1-piperazineethanesulfonic acid, and 100 mM KCl adjusted to pH 7.5. A glass electrode (Orion), calibrated prior to each use, was used to determine solution pH. Solutions of Zn^2+ were prepared from 100 mM stock solutions of ZnCl2 in water. Absorption spectra were recorded on a Hewlett-Packard 8453A diode array spectrophotometer, and fluorescence spectra on a Photon Technology International (PTI) Quanta Master 4 L-format scanning spectrofluorimeter equipped with an LPS-220B 75-watt xenon lamp and power supply, A-1010B lamp housing with integrated igniter, switchable 814 photon-counting/analog photomultiplier detection unit, and MD-5020 motor driver. Samples for absorption and emission measurements were contained in 1 cm×1 cm quartz cuvettes (3.5 mL volume, Stama). The experiments for measuring quantum yields, apparent dissociation constants (Kd), and metal ion selectivities were performed by using standard protocols. Quantum yields were determined by reference to fluorescein in 0.1 N NaOH (Φ=0.95). Confocal fluorescence imaging experiments were performed with a Zeiss LSM510 laser scanning microscopy system containing an Axiovert 200M inverted fluorescence microscope. The microscope was equipped with an argon ion laser (488-nm excitation) and objective lenses (100×), and scanning was performed using the META detection system operating in lambda mode (Zeiss) with 10.7 nm collection windows. During imaging measurements, cell samples were kept on the microscope stage in a CTI-3700 incubator at 37° C. under 5% CO2. Additions of Zn^2+ as the pyrithione complex (2-mercaptopyridine N-oxide), TPEN [N,N,N′,N′-tetra(2-picolyl)ethylenediamine], or SNOC (S-nitrosocysteine) to cell samples were performed directly on the microscope stage by bath application to the media. SNOC was prepared immediately before use.

[3] = Metal ion selectivity of the ratiometric fluorescence response (F624/F528) of ZNP1
Experimental: FIG. 4. Ratiometric fluorescence spectroscopic responses of ZNP1 to various metal ions. Bars represent the ratio of fluorescence intensities collected at 624 and 528 nm (F624/F528). All spectra were acquired in 50 mM HEPES, 100 mM KCl, pH 7.5. White bars represent the addition of an excess of the appropriate metal ion (2 mM for Ca^2+ and Mg^2+, 100 μM for all other metal ions) to a 10 μM solution of ZNP1. Grey bars represent the subsequent addition of 100 μM Zn^2+ to the solution. Excitation was provided at 499 nm.
The emission profiles of apo or Zn^2+-bound ZNP1 are unperturbed in the presence of 2 mM Ca^2+ or Mg^2+, indicating a degree of selectivity for Zn^2+ over these biologically competing alkaline earth cations.
as §2, with “SNOC was prepared immediately before use.” left out

COS-7 cells = experiment: Cell membrane permeability and ratio confocal fluorescence imaging of intracellular Zn2+ in live COS-7 cells; assay type: cell-based
Experimental: FIG. 5. Ratio confocal fluorescence imaging in COS-7 cells using the Zeiss LSM510 META system operating in the lambda mode. Fluorescence was collected in 10.7 nm optical windows centered at 612 and 526 nm. Pseudocolor figures depict the ratio of fluorescence intensities at these two emission wavelengths. (a) Ratio confocal fluorescence images of live COS-7 cells labeled with ZNP1. Incubation of cells with 20 μM ZNP1-Ac for 20 min at 37° C. (left), ZNP1-stained cells loaded with 50 μM Zn(pyrithione)2 for 5 min (middle), and reversal of the cytosolic ratio enhancements with 100 μM TPEN (right). Confocal images were taken from a middle optical section (vertical dimension) of the cell samples. (b) Confocal fluorescence images of NO-triggered release of endogenous Zn^2+ in live COS-7 cells. Incubation of cells with 20 μM ZNP1-Ac for 20 min at 37° C. (left), ZNP1-stained cells treated with 10 mM SNOC (S-nitrosocysteine, middle) for 1 hr, and reversal of the observed ratio increases with 2 mM TPEN (right). Confocal images were taken from a middle optical section (vertical dimension) of the cell samples.
We therefore prepared the non-fluorescent diacetate derivative of ZNP1, ZNP1-Ac, anticipating that this more lipophilic derivative would permeate the cell and be transformed to fluorescent ZNP1 by the action of intracellular esterases. […] Ratiometric fluorescence imaging of ZNP1-stained cells is readily performed by using the META detection system operating in lambda mode with optical windows centered at 612 and 526 nm. […] Prompt increases in the ratio of cytosolic fluorescence intensities collected at 612 and 526 nm are observed upon the addition of exogenous Zn^2+ (50 μM) carried by the ionophore pyrithione (2-mercaptopyridine N-oxide, FIG. 5a). […]
The successful use of ZNP1 for monitoring changes in intracellular Zn^2+ concentrations using ratiometric fluorescence imaging led us to apply this probe for detecting endogenous pools of intracellular Zn^2+. […]

increase of λ624/λ528 emission ratio on Zn2+ binding ([2]; 499-nm excitation) [fold] | quantum yield, Zn2+ complex ([2]; Zn2+-bound, 50 mM HEPES, 100 mM KCl) | quantum yield, apo ([2]; no Zn2+, EDTA present, 50 mM HEPES, 100 mM KCl, reference fluorescein in 0.1 N NaOH) | permeability to cell membranes (COS-7 cells; initial experiments) | Structure (SMILES) | selectivity for Hg2+ over other metal ions (in words) [1] | time of fluorescence response to buffered Zn2+ ([2]; 20 μM probe, free Zn2+ 0-10.2 nM) | ratio of emission intensities λ624/λ528 in the absence of Zn2+ ([2]; 499-nm excitation) | ratio of emission intensities λ624/λ528 in the presence of Zn2+ ([2]; 499-nm excitation) | selectivity for Zn2+ over other metal ions (in words) [3] | emission profiles of apo or Zn2+-bound probe in the presence of Ca2+ or Mg2+ ([3]; 10 μM probe, 2 mM Ca2+ or Mg2+, pH 7.5) | ratiometric response to subsequent addition of 100 μM Zn2+ in the presence of first-row transition metal ions ([3]; 10 μM probe, Cu2+, Ni2+, Co2+, Fe2+, Mn2+ 100 μM, then 100 μM Zn2+) | change in emission ratio with Cu2+, Ni2+, Co2+, Fe2+, Mn2+ ([3]; 10 μM probe, metal ions at 10-fold excess over probe) | monitoring of intracellular [Zn2+] changes (612/526 nm ratio) (COS-7 cells; stained COS-7 cells, 50 μM Zn2+/pyrithione, then 100 μM TPEN) | detection of NO-triggered release of endogenous Zn2+ (612/526 nm ratio) (COS-7 cells; stained COS-7 cells, 10 mM S-nitrosocysteine, reversed by 2 mM TPEN)
– | – | – | – | CCSCCN(Cc1ccccn1)Cc1ccccc1NCc1c2oc3c(ccc4cc(O)ccc43)c(-c3ccccc3C(=O)O)c-2ccc1=O [MS4] | selectivity for Hg^2+ over metal ions such as Na^+, Ca^2+, and Mg^2+ | – | – | – | – | – | – | – | – | –
– | – | – | – | CCSCCN(CCSCC)Cc1ccccc1NCc1c2oc3c(ccc4cc(O)ccc43)c(-c3ccccc3C(=O)O)c-2ccc1=O [MS5, 2-{11-[(2-{[Bis-(2-ethylsulfanylethyl)amino]methyl}phenylamino)methyl]-3-hydroxy-10-oxo-10H-benzo[c]xanthen-7-yl}benzoic acid] | selectivity for Hg^2+ over metal ions such as Na^+, Ca^2+, and Mg^2+ | – | – | – | – | – | – | – | – | –
18 | 0.05 | 0.02 | impermeable to cell membranes | O=C(O)c1ccccc1-c1c2ccc(=O)c(CNc3ccccc3CN(Cc3ccccn3)Cc3ccccn3)c-2oc2c1ccc1cc(O)ccc12 [ZNP1, 4-[12-{Bis(2-pyridylmethyl)aminomethyl}-N-methylaniline]-3,10-dibenzoate-spiro[7H-benzo[c]xanthen-7,1′(3′H)-isobenzofuran]-3′-one] | – | immediately upon mixing | 0.4 | 7.1 | selectivity for Zn^2+ over metal ions such as Na^+, K^+, Ca^2+, and Mg^2+ | unperturbed | only the sample containing Mn^2+ affords a ratiometric fluorescence response | no discernable change in emission ratios | can monitor changes in intracellular [Zn^2+] reversibly | establishes a rise in intracellular [Zn^2+]
